Measured values as given in patent publication US6737383B1, “Herbicidal oxadiazolidines” (priority 1999, dated 2004).

Legend:
[1] = test system: wheat; test: Test B pre/postemergence wheat; type: in vivo, Triticum aestivum; settings: for Plant response rating, Wheat: Postemergence
How it was run: (§1)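 Test chemicals in a non-phytotoxic solvent mixture with surfactant were sprayed preemergence onto planted seeds and postemergence onto plants 2 to 18 cm tall (1- to 4-leaf stage). After twelve to sixteen days in a greenhouse, injury was visually rated against untreated controls from 0 (no effect) to 10 (complete control).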

[2] = test system: surinam grass; test: Test B pre/postemergence surinam grass; type: in vivo, Brachiaria decumbens
How it was run: as §1

[3] = test system: sugar beet; test: Test B pre/postemergence sugar beet; type: in vivo, Beta vulgaris; settings: for Plant response rating, Sugarbeets: Postemergence
How it was run: as §1

[4] = test system: crabgrass; test: Test B pre/postemergence crabgrass; type: in vivo, Digitaria sanguinalis
How it was run: as §1

[5] = test system: velvetleaf; test: Test B pre/postemergence velvetleaf; type: in vivo, Abutilon theophrasti; settings: for Plant response rating, Velvetleaf: Postemergence
How it was run: as §1

[6] = test system: bedstraw; test: Test B pre/postemergence bedstraw; type: in vivo, Galium aparine
How it was run: as §1

[7] = test system: purple nutsedge; test: Test B pre/postemergence purple nutsedge; type: in vivo, Cyperus rotundus
How it was run: as §1

[8] = test system: cocklebur; test: Test B pre/postemergence cocklebur; type: in vivo, Xanthium strumarium
How it was run: as §1

[9] = test system: pigweed; test: Test B pre/postemergence pigweed; type: in vivo, Amaranthus retroflexus; settings: for Plant response rating, Redroot pigweed: Postemergence
How it was run: as §1

[10] = test system: rice; test: Test B flood test rice; type: in vivo, Oryza sativa; settings: Rate 250 g/ha; Pre-emergence (flood test species); scale 0 to 10, 0 is no effect, 10 is complete control
How it was run: (§2)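 Read-out is a visual response score from 0 (no effect) to 10 (complete control), assigned by comparison with untreated controls. Treatment was applied at the 2-leaf stage, and plants stayed in the greenhouse for twelve to sixteen days before scoring.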

[11] = test system: rape; test: Test B pre/postemergence rape; type: in vivo, Brassica napus
How it was run: as §1

[12] = test system: blackgrass; test: Test B pre/postemergence blackgrass; type: in vivo, Alopecurus myosuroides
How it was run: as §1

[13] = test system: bamyardgrass; test: Test B flood test barnyardgrass; type: in vivo, Echinochloa crus-galli; settings: Rate 250 g/ha; Pre-emergence (flood test species); scale 0 to 10, 0 is no effect, 10 is complete control
How it was run: as §2

[14] = test system: giant foxtail; test: Test B pre/postemergence giant foxtail; type: in vivo, Setaria faberii
How it was run: as §1

[15] = test system: duck salad; test: Test B flood test duck salad; type: in vivo, Heteranthera limosa; settings: Rate 250 g/ha; Pre-emergence (flood test species); scale 0 to 10, 0 is no effect, 10 is complete control
How it was run: as §2

[16] = test system: soybean; test: Test B pre/postemergence soybean; type: in vivo, Glycine max; settings: for Plant response rating, Soybean: Postemergence
How it was run: as §1

[17] = test system: corn; test: Test B pre/postemergence corn; type: in vivo, Zea mays
How it was run: as §1

[18] = test system: morningglory; test: Test B pre/postemergence morningglory; type: in vivo, Ipomoea hederacea
How it was run: as §1

[19] = test system: smallflower flatsedge; test: Test B flood test smallflower flatsedge; type: in vivo, Cyperus difformis; settings: Rate 250 g/ha; Pre-emergence (flood test species); scale 0 to 10, 0 is no effect, 10 is complete control
How it was run: as §2

[20] = test system: wild oat; test: Test B pre/postemergence wild oat; type: in vivo, Avena fatua; settings: for Plant response rating, Wild oats: Postemergence
How it was run: as §1

[21] = Rate 500 g/ha, scale of 0 to 10 where 0 is no effect and 10 is complete control
[22] = Preemergence, Rate 62 g/ha, scale 0 to 10 (0 no effect, 10 complete control)
[23] = Preemergence, Rate 125 g/ha, scale 0 to 10, 0 is no effect, 10 is complete control
[24] = Preemergence, Rate 500 g/ha, scale of 0 to 10 where 0 is no effect and 10 is complete control
[25] = Rate 250 g/ha, scale of 0 to 10 where 0 is no effect and 10 is complete control
[26] = Postemergence, Rate 62 g/ha, scale of 0 to 10, 0 is no effect, 10 is complete control
[27] = Postemergence, Rate 125 g/ha, scale 0 to 10, 0 is no effect, 10 is complete control
[28] = Postemergence, Rate 500 g/ha, scale of 0 to 10 where 0 is no effect and 10 is complete control
[29] = Rate 250 g/ha, Postemergence, scale of 0 to 10 where 0 is no effect and 10 is complete control

Cc1noc(C)c1Cn1c(=O)on(C(=O)N(c2ccccc2)C(C)C)c1=O [Compound 569]
3: Sugarbeets plant response rating [3, 24] | Plant response rating, Velvetleaf [5, 21] | Bedstraw plant response rating [6, 23] | Plant response rating, Blackgrass [12, 28] | Giant foxtail plant response rating [14, 27] | Morningglory plant response rating [18, 26]
7: Crabgrass plant response rating [4, 22] | Velvetleaf plant response rating [5, 24] | Redroot pigweed plant response rating [9, 22]
9: B. signalgrass plant response rating [2, 23] | B. signalgrass plant response rating (0 to 10 scale, 0 is no effect, 10 is complete control) ([2]; Preemergence, Rate 250 g/ha) | B. signalgrass plant response rating [2, 24] | Crabgrass plant response rating [4, 23] | Crabgrass plant response rating (0 to 10 scale) ([4]; Preemergence, Rate 250 g/ha) | Crabgrass plant response rating [4, 24] | Redroot pigweed plant response rating [9, 23] | Redroot pigweed plant response rating (0 to 10 scale) ([9]; Preemergence, Rate 250 g/ha) | Rape plant response rating [11, 24] | Blackgrass plant response rating (0 to 10 scale) ([12]; Preemergence, Rate 250 g/ha) | Blackgrass plant response rating [12, 24] | Giant foxtail plant response rating [14, 22] | Giant foxtail plant response rating [14, 23] | Giant foxtail plant response rating (0 to 10 scale) ([14]; Preemergence, Rate 250 g/ha) | Corn plant response rating [17, 24] | Wild oats plant response rating [20, 24]
2: Plant response rating, Velvetleaf [5, 25] | Cocklebur plant response rating [8, 27] | Plant response rating, Cocklebur [8, 28] | Plant response rating, Cocklebur [8, 29] | Plant response rating, Blackgrass [12, 29] | Plant response rating, Corn [17, 28]
6: Plant response rating, Crabgrass [4, 28] | Plant response rating, Crabgrass [4, 29] | Wild oats plant response rating (0 to 10 scale) ([20]; Preemergence, Rate 250 g/ha)
10: Redroot pigweed plant response rating [9, 24] | Giant foxtail plant response rating [14, 24] | Morningglory plant response rating [18, 27] | Plant response rating, Morningglory [18, 28] | Plant response rating, Morningglory [18, 29]
0: Plant response rating, Wheat [1, 21] | Wheat plant response rating [1, 22] | Wheat plant response rating [1, 23] | Wheat plant response rating (0 to 10 scale) ([1]; Preemergence, Rate 250 g/ha) | Plant response rating, Wheat [1, 25] | B. signalgrass plant response rating [2, 26] | B. signalgrass plant response rating [2, 27] | B. signalgrass plant response rating [2, 22] | Plant response rating, B. signalgrass [2, 29] | Plant response rating, Sugarbeets [3, 21] | Sugarbeets plant response rating [3, 22] | Sugarbeets plant response rating [3, 23] | Sugarbeets plant response rating (0 to 10 scale) ([3]; Preemergence, Rate 250 g/ha) | Plant response rating, Sugarbeets [3, 25] | Crabgrass plant response rating [4, 26] | Crabgrass plant response rating [4, 27] | Velvetleaf plant response rating [5, 22] | Velvetleaf plant response rating [5, 23] | Velvetleaf plant response rating (0 to 10 scale) ([5]; Preemergence, Rate 250 g/ha) | Bedstraw plant response rating [6, 26] | Bedstraw plant response rating [6, 22] | Bedstraw plant response rating (0 to 10 scale) ([6]; Preemergence, Rate 250 g/ha) | Bedstraw plant response rating [6, 24] | Nutsedge plant response rating [7, 26] | Nutsedge plant response rating [7, 27] | Plant response rating, Nutsedge [7, 28] | Nutsedge plant response rating [7, 22] | Nutsedge plant response rating [7, 23] | Nutsedge plant response rating (0 to 10 scale) ([7]; Preemergence, Rate 250 g/ha) | Nutsedge plant response rating [7, 24] | Plant response rating, Nutsedge [7, 29] | Cocklebur plant response rating [8, 26] | Cocklebur plant response rating [8, 22] | Cocklebur plant response rating [8, 23] | Cocklebur plant response rating (0 to 10 scale) ([8]; Preemergence, Rate 250 g/ha) | Cocklebur plant response rating [8, 24] | Rice plant response rating [10] | Rape plant response rating [11, 26] | Rape plant response rating [11, 27] | Plant response rating, Rape [11, 28] | Rape plant response rating [11, 22] | Rape plant response rating [11, 23] | Plant response rating, Rape [11, 29] | Blackgrass plant response rating [12, 26] | Blackgrass plant response rating [12, 27] | Blackgrass plant response rating [12, 22] | Blackgrass plant response rating [12, 23] | Barnyardgrass plant response rating [13] | Giant foxtail plant response rating [14, 26] | Ducksalad plant response rating [15] | Soybean plant response rating [16, 22] | Soybean plant response rating [16, 23] | Soybean plant response rating (0 to 10 scale) ([16]; Preemergence, Rate 250 g/ha) | Soybean plant response rating [16, 24] | Corn plant response rating [17, 26] | Corn plant response rating [17, 27] | Corn plant response rating [17, 22] | Corn plant response rating [17, 23] | Corn plant response rating (0 to 10 scale) ([17]; Preemergence, Rate 250 g/ha) | Plant response rating, Corn [17, 29] | Morningglory plant response rating [18, 22] | Morningglory plant response rating [18, 23] | Morningglory plant response rating (0 to 10 scale) ([18]; Preemergence, Rate 250 g/ha) | Morningglory plant response rating [18, 24] | S. Flatsedge plant response rating [19] | Plant response rating, Wild oats [20, 21] | Wild oats plant response rating [20, 22] | Wild oats plant response rating [20, 23] | Plant response rating, Wild oats [20, 25]
4: Wheat plant response rating [1, 24] | Plant response rating, B. signalgrass [2, 28] | Plant response rating, Redroot pigweed [9, 21] | Plant response rating, Redroot pigweed [9, 25] | Rape plant response rating (0 to 10 scale) ([11]; Preemergence, Rate 250 g/ha) | Plant response rating, Giant foxtail [14, 28] | Plant response rating, Giant foxtail [14, 29] | Plant response rating, Soybean [16, 21] | Plant response rating, Soybean [16, 25]
